# Measured values published in patent US12337004B2, “Coumarin-modified androgens for the treatment of prostate cancer” (Health Research, Inc., priority 2019, dated 2025).
# What was measured:
# KLK2 [1] = assay: Western blot of AR-regulated protein expression; format: cell-based; conditions: CaP cell lines
# KLK2 [2] = assay: qRT-PCR of AR-regulated gene KLK2; format: cell-based; conditions: 24 hours; VCaP, LAPC-4, LNCaP, CWR-R1 and 22rv1 cells
# ARE-luciferase = ARE-luciferase transactivation; format: cell-based
# LNCaP cells = assay: MTT cell growth, LNCaP; format: cell-based; conditions: six days; data not shown
# AR-V2 = target: T1, AR-V2 (Homo sapiens, UniProt P10275); format: cell-based; conditions: DHT-17C versus enzalutamide
# T1 construct: stably expressed AR170 LBD only with splice variant V2 (AR-V2-GFP); expressed in transfected cells; host or cells: VCaP, PC-3
# T1 sequence (P10275 1-388 isoform P10275-2): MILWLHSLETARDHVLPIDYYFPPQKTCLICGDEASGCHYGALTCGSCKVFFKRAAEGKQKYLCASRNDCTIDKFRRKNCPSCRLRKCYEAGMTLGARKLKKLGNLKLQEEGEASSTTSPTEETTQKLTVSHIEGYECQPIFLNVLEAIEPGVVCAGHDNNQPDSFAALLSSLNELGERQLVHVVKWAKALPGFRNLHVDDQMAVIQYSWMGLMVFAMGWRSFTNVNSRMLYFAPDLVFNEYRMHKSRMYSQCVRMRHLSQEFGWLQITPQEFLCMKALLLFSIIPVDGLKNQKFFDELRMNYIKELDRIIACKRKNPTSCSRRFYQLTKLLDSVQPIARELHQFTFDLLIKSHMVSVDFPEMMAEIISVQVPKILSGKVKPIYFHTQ
# Source text: (§4) ImageStream was used to perform competition studies between DHT-17C and enzalutamide for AR-GFP or AR-V2 to establish that DHT-17C targets the AR-LBD.
# DU145 cells = assay: MTT cell growth, DU145; format: cell-based; conditions: AR-negative
# VCaP cells = assay: MTT cell growth, VCaP; format: cell-based
# Experimental: (§1) Identification of a 3α-oxidoreductase inhibitors: Various non-steroidal compounds were tested for anti-neoplastic activity by screening against PC-3 CaP cells. Coumarin-labeled androgens were developed to track changes in androgen metabolism pathways in response to castration or androgen metabolism inhibition using in vitro and in vivo CaP cell models.
# (§2) VCaP, CWR-R1 and PC-3 cells were treated for six days with complete culture media (CM), serum-free culture media (SFM), bicalutamide (Bic) at 10 μM, the coumarin C at 20 μM, DHT at 10 nM, DHT-17C at 20 nM and DHT-3C at 20 nM (FIG. 20). […] MTT analysis was performed to compare cell growth impairment of VCaP cells treated with DHT-17C versus enzalutamide. Cells were treated with DHT-17C at 1 nM, 12 nM, 20 nM, 50 nM or 100 nM concentrations, or enzalutamide at 1 μM, 12 μM, 20 μM, 50 μM or 100 μM concentrations. […] MTT performed using ezanlutamide (20 uM) or DHT-17C (50 nM) treated mutant AR and AR-V7 positive CWR-R1 cells supported VCaP MTT data (FIG. 22).
# LAPC-4 cells = assay: MTT cell growth, LAPC-4; format: cell-based; conditions: six days; data not shown
# [3] = system: CV-1 monkey kidney cell line; assay: MTT cell growth, CV-1; format: cell-based; conditions: non-CaP cell line
# AR-V2-GFP = target: T2, AR-V2-GFP (Homo sapiens, UniProt P10275); assay: ImageStream co-localization with AR-V2-GFP; format: cell-based; conditions: VCaP and PC-3 cells that stably expressed AR-V2-GFP
# T2 construct: stably expressed AR170 LBD only with splice variant V2 (AR-V2-GFP); expressed in transfected cells; host or cells: VCaP, PC-3
# T2 sequence (P10275 1-388 isoform P10275-2): T1 sequence (P10275 1-388 isoform P10275-2)
# Experimental: ImageStream studies were repeated using VCaP and PC-3 cells that stably expressed AR-V2 (splice-variant that lacked the N-terminus) with C-terminal GFP (AR-V2-GFP). […] ImageStream data was confirmed using immunoprecipation (IP) studies performed with a DHT-targeted antibody.
# Serum-free complete media (SFM)^2 was used to androgen deprive cells. PC-3 cells that contained empty plasmid were treated with SFM alone, SFM with C or SFM with DHT-3C.
# PC-3 cells = assay: MTT cell growth, AR-negative PC-3; format: cell-based; conditions: six days, 20 nM
# Experimental: as §1, §2
# AR-GFP [4] = target: T3, AR-GFP (Homo sapiens, UniProt P10275); assay: ImageStream nuclear co-localization with AR-GFP; format: cell-based; conditions: VCaP-AR-GFP and PC-3-AR-GFP cells
# T3 construct: expressed in transfected cells; host or cells: VCaP, PC-3 (also LAPC-4, CWR-R1, 22Rv1, DU145)
# T3 sequence (P10275 1-920): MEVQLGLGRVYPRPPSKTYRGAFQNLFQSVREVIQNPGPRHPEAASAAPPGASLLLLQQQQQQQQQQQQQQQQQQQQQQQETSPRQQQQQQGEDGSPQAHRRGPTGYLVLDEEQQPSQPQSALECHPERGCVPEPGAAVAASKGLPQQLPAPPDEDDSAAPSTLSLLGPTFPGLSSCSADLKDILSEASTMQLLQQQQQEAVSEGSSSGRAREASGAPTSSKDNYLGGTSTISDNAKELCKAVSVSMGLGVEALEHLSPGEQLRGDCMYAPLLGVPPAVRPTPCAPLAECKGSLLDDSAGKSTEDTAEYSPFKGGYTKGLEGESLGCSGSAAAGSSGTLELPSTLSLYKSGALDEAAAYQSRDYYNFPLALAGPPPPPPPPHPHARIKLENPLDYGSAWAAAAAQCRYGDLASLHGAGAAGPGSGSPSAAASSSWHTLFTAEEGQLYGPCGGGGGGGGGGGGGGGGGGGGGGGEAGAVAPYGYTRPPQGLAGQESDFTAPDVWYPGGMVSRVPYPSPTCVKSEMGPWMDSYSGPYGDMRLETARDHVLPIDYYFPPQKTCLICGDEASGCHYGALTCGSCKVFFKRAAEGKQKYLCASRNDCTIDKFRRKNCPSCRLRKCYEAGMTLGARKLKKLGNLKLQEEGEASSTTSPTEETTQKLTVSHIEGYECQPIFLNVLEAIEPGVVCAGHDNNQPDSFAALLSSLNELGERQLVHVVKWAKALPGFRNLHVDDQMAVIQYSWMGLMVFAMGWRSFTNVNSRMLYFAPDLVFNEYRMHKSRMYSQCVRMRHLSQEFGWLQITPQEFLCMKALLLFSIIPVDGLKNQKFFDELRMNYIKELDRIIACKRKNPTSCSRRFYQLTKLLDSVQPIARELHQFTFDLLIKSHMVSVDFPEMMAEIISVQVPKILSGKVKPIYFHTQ
# Source text: Androgen-sensitive AR-positive LAPC-4 and VCaP, castration-recurrent and AR-positive CWR-R1 and CWR-22rv1 (22rv1), and AR-negative PC-3 and DU145 cells were transfected with either an empty pCMV expression plasmid (control) or a pCMV plasmid that encoded a wild-type AR tagged with a C-terminal green fluorescent protein (GFP; AR-GFP). AR-positive CaP cell lines were transfected with AR-GFP to assess if DHT-17C or DHT-3C co-localized with AR and translocated to the nucleus.
# AR positive CaP cell lines were treated for 16 hours with androgen-free, serum-free complete media (SFM) alone, or SFM that contained 20 nM or 50 nM fluorescent-androgens or C alone. The time points were chosen to measure differences in uptake of the fluorescent-androgens and nuclear or cytosolic localization of the fluorescent-androgens and/or AR-GFP.
# Serum-free complete media (SFM)^2 was used to androgen deprive cells.
# [5] = system: 293 human kidney cell line; assay: MTT cell growth, 293; format: cell-based; conditions: non-CaP cell line
# AR-GFP [6] = target: T3, AR-GFP; format: cell-based; conditions: DHT-17C versus enzalutamide
# Source text: as §4
# CWR-R1 cells = assay: MTT cell growth, CWR-R1; format: cell-based, human; conditions: six days
# Experimental: as §1, §2
# 22Rv1 cells = assay: MTT cell growth, 22Rv1; format: cell-based; conditions: six days; data not shown
# RDH16-YFP [7] = target: T4, RDH16-YFP (Homo sapiens, UniProt O75452); assay: ImageStream competition for RDH16-YFP; format: cell-based; conditions: PC-3 cells that stably expressed RDH16-YFP
# T4 construct: expressed in transfected cells; host or cells: PC-3
# T4 sequence (O75452 1-317): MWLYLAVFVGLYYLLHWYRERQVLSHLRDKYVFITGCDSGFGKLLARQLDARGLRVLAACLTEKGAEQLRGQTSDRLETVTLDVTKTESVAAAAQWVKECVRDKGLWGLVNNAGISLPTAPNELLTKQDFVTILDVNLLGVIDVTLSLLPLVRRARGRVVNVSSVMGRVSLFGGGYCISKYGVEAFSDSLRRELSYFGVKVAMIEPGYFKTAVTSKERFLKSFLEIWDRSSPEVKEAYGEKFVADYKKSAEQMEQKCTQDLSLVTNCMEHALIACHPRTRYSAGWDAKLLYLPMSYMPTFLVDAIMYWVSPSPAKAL
# Experimental: (§3) ImageStream (ImageStream^X-MKII Flow Cytometer [Amnis, Seattle, WA]) is a hybrid technique that combines the statistical power of flow cytometry and the imaging capability of fluorescence microscopy that was adapted to study simultaneously DIOL-17C compartmental localization and activity. ImageStream data were normalized against single-stained controls and analyzed using Image Data Exploration and Analysis Software (IDEAS; Amnis). The similarity score was measured by comparing two images of the same cell pixel by pixel. If the similarity score was >0, the two objects (RDH16-YFP and DIOL-17C) were co-localized.
# 3α-oxidoreductase = assay: LC-MS/MS of CaP cells treated with DIOL-17C; format: in vitro ADME
# RDH16-YFP [8] = target: T4, RDH16-YFP; assay: ImageStream co-localization with RDH16-YFP; format: cell-based; conditions: PC-3-RDH16-YFP cells
# Experimental: as §3
smiles,measurement,setting,value
"C[C@]12CCC(=O)C[C@@H]1CC[C@@H]1[C@@H]2CC[C@]2(C)[C@@H](O)CC[C@@H]12 [DHT, 5α-dihydrotestosterone, reference compound]",AR-regulated protein expression levels,KLK2 [1],produced similar AR-regulated protein expression levels
same,KLK2 transcript induction,KLK2 [2],produced similar inductions of expression
same,ARE-luciferase signal,ARE-luciferase,produced ARE-luciferase signal
"C[C@]12CCC3C(CC[C@H]4CC(=O)CC[C@]34C)C1CC[C@@H]2OCC(=O)NCCc1cc(=O)oc2c3c4c(cc12)CCCN4CCC3 (stereo partly drawn) [DHT-17C, N-2′-(2,3,4,5-Tetrahydro-1H,4H-10-keto-11-oxa-3α-azabenzo[de]anthracenyl)ethyl (3-keto-5α-androstan-17β-yl)glycolamide]",LNCaP cell growth (MTT),LNCaP cells,produced similar responses
same,competition for the AR-LBD of AR-V2,AR-V2,compete for the AR-LBD of wild-type AR and AR-V2
same,DU145 cell growth (MTT),DU145 cells,did not impair cell growth
same,dose lower than enzalutamide for VCaP growth inhibition,"VCaP cells; DHT-17C 20 nM vs enzalutamide 20 μM, AR-V7 positive VCaP",1000 ×
same,VCaP cell growth impairment versus enzalutamide,"VCaP cells; DHT-17C at 1, 12, 20, 50 or 100 nM",impaired VCaP cell growth to similar extents as enzalutamide
same,VCaP cell growth (MTT),"VCaP cells; six days, DHT-17C at 20 nM, DHT-3C at 20 nM",impaired VCaP and CWR-R1 cell growth
same,"VCaP cell growth, combination with bicalutamide","VCaP cells; six days, bicalutamide 10 μM, p-values<0.05",enhanced the effect of bicalutamide
same,LAPC-4 cell growth (MTT),LAPC-4 cells,produced similar responses
same,CV-1 cell growth (MTT),[3],did not impair cell growth
same,co-localization with AR-V2-GFP,AR-V2-GFP,co-localized with DRAQ5 and AR-V2-GFP
same,PC-3 cell growth (MTT),PC-3 cells,did not impair cell growth
same,KLK2 transcript induction,KLK2 [2],did not induce KLK2 transcript formation
same,nuclear co-localization with AR-GFP and DRAQ5,AR-GFP [4],co-localized with AR-GFP
same,293 cell growth (MTT),[5],did not impair cell growth
same,competition for the AR-LBD of wild-type AR,AR-GFP [6],compete for the AR-LBD of wild-type AR and AR-V2
same,CWR-R1 cell growth (MTT),"CWR-R1 cells; DHT-17C at 20 nM, DHT-3C at 20 nM",impaired VCaP and CWR-R1 cell growth
same,"CWR-R1 cell growth, combination with bicalutamide","CWR-R1 cells; bicalutamide 10 μM, p-values<0.05",enhanced the effect of bicalutamide
same,22Rv1 cell growth (MTT),22Rv1 cells,produced similar responses
"C[C@]12CC[C@@H](O)C[C@@H]1CC[C@@H]1[C@@H]2CC[C@]2(C)[C@@H](O)CC[C@@H]12 [DIOL, 5α-androstane-3α,17β-diol, reference compound]",competition for RDH16-YFP,RDH16-YFP [7],compete for RDH16-YFP
same,ARE-luciferase signal,ARE-luciferase,produced ARE-luciferase signal
"C[C@]12CCC3C(CC[C@H]4C[C@H](O)CC[C@]34C)C1CC[C@@H]2OCC(=O)NCCc1cc(=O)oc2c3c4c(cc12)CCCN4CCC3 (stereo partly drawn) [DIOL-17C, N-2′-(2,3,4,5-Tetrahydro-1H,4H-10-keto-11-oxa-3α-azabenzo[de]anthracenyl)ethyl (3α-hydroxy-5α-androstan-17β-yl)glycolamide]",CaP cell growth (MTT),"VCaP cells; 20 nM, 6 days in SFM, FIG. 14 VCaP",impaired CaP cell growth
same,3α-oxidoreductase metabolism to DHT-17C,3α-oxidoreductase,did not impair 3α-oxidoreductase metabolism of DIOL-17C to DHT-17C
same,free DIOL and orphan coumarin produced by cells,3α-oxidoreductase,No orphan fluorophores were detected
same,competition for RDH16-YFP,RDH16-YFP [7],compete for RDH16-YFP
same,co-localization with RDH16-YFP and DRAQ5 in the nucleus,RDH16-YFP [8],co-localized with RDH16-YFP
